US7179817B2, “Carboxylic acid derivatives and drugs containing the same as the active ingredient” (ONO Pharmaceutical Co., Ltd., priority 2001, dated 2007)
Counter-ions that a name gives are not always drawn.

Biological target: T1, human EDG-1 (Homo sapiens, UniProt P21453)
T1 construct: expressed in transfected cells; host or cells: CHO (Chinese Hamster Ovary) cells, cultured under Blasticidin selection
Experiment: Assessment of an agonistic action by monitoring the intracellular calcium ion
Type: cell-based
Conditions: human EDG-1 gene over expression CHO cells; Fura2 intracellular Ca2+ increase; Concentration of Half-100 nM S1P Ca2+ release
Procedure: (1) Assessment of an Agonistic Action by Monitoring the Intracellular Calcium Ion
The assessment of an agonistic action for the receptor was carried out using the human EDG-1 gene over expression cells (Chinese Hamster Ovary, CHO). EDG-1 expression cells were cultured with Ham's F12 (GIBCO BRL, No. 11765-047) medium containing 10% FBS, Penicillin/Streptomycin and Blasticidin (5 μg/mL). First, in order to load Fura2-AM (Dojindo, No. 348-05831) in the cells, the cells were incubated by 5 μM Fura2-AM solution (Ham's F12 medium containing 10% FBS, 20 mM HEPES pH7.4, 2.5 mM Probenecid (Sigma, catalog No.P-8761)) at 37° C. for 60 min. Next, the cells were washed once by Hanks solution containing 20 mM HEPES pH7.4, 2.5 mM Probenecid and soaked in the Hanks solution until assay.
The plate was set on the fluorescence drug screening system (Hamamatsu photonics FDSS-2000). After measurement of the background signal for […], the solution of the assay compound was added. The test compounds were added at the final concentration range of between 0.1 nM and 10 μM as the final dimethyl sulfoxide (DMSO) concentration made to 1/1000 of the original solution. Fura2-Ca^2+ fluorescence excited at 340 nm and 380 nm was measured every 3 seconds at emission wavelength 500 nm. Intracellular Ca^2+ concentration was assessed with fluorescent ratio of excitation wavelength 340 nm and 380 nm. Agonistic activity was calculated as below, that is, the control value (A) was obtained by measuring the response of 100 nM S1P (BIOMOL:M9076) after adding DMSO to the well for the test compounds, and (A) was compared with the value (B) which is the difference of fluorescent ratio obtained by measuring response between the pre and post of test compounds added. Rate of intracellular Ca^2+ increase (%) was calculated as following equation. rate of increase (%)=(B/A)×100
Moreover, rate of increase was calculated at each concentration and EC50 (Concentration of Half—100 nM S1P Ca^2+ release) of each compound was calculated setting the maximal concentration of the compound giving the response corresponding to that of S1P at the concentration of 100 nM.

T1 sequence (P21453 whole entry): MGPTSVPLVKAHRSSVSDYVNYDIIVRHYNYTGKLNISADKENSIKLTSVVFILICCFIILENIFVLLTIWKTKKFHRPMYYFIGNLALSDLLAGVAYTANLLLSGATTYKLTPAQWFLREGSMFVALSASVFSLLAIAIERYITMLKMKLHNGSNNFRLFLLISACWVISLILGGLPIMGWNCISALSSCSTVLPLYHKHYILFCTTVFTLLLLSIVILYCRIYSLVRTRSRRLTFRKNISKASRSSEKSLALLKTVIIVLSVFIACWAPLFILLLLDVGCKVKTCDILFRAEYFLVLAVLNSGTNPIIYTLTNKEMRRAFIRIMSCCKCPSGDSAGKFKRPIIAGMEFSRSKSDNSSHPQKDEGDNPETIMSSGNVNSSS

| Structure (SMILES) | EC50 |
| --- | --- |
| O=C(CCc1ccc(OCCCCCc2ccccc2)cc1)Nc1ccc(C(=O)O)c(C(=O)O)c1 [Example 2(3), 2-carboxy-5-[3-(4-(5-phenylpentyloxy)phenyl)propanoylamino]benzoic acid] | 1.4 nM |
| O=C(CCc1ccc(OCCCCCc2ccccc2)cc1)Nc1cc(Cl)c(Cl)c(C(=O)O)c1 [Example 9(6), 2,3-dichloro-5-[3-(4-(5-phenylpentyloxy)phenyl)propanoylamino]benzoic acid] | 7.3 nM |
| O=C(NCCc1ccc(OCCCCCc2ccccc2)cc1)c1ccc(C(=O)O)c(C(=O)O)c1 [Example 19, 2-carboxy-5-[2-(4-(5-phenylpentyloxy)phenyl)ethylaminocarbonyl]benzoic acid] | 1.5 nM |
| O=C(O)c1cncc(C(=O)NCCc2ccc(OCCCCCc3ccccc3)cc2)c1 [Example 16(3), 5-[2-(4-(5-phenylpentyloxy)phenyl)ethylaminocarbonyl]pyridine-3-carboxylic acid] | 4.5 nM |
| O=C(NCCc1ccc(OCCCCCc2ccccc2)cc1)c1ccc(Cl)c(C(=O)O)c1 [Example 16, 2-chloro-5-[2-(4-(5-phenylpentyloxy)phenyl)ethylaminocarbonyl]benzoic acid] | 8.3 nM |
| O=C(CCc1ccc(OCCCCCc2ccccc2)cc1)Nc1ccc(Cl)c(C(=O)O)c1 [Example 2(1), 2-chloro-5-[3-(4-(5-phenylpentyloxy)phenyl)propanoylamino]benzoic acid] | 9 nM |
| O=C(O)CNC(=O)CCc1ccc(CCCCCCc2ccccc2)cc1 [Example 28, 2-[3-(4-(6-phenylhexyl)phenyl)propanoylamino]acetic acid] | 25 nM |
| O=C(O)CCNCCc1ccc(OCCCCCc2ccccc2)cc1 [Example 32, 3-[2-(4-(5-phenylpentyloxy)phenyl)ethylamino]propanoic acid hydrochloride] | 30 nM |
